Measurements: US6914045B2, “Glycopeptide antibiotics” (Wyeth Holdings Corporation, priority 2001, dated 2005)
Values after ≈ are worked out from the molar mass of the structure shown. Each block holds one compound with its values, some of them ahead of it.

Legend:
Test in all cases: in vitro antibacterial evaluation, MIC by broth dilution
Assay type in all cases: cell-based
[1] = test system: Staphylococcus sp.; settings: broth dilution, 18 hours at 35° C.; for MIC Staphylococcus aureus (ATCC 29213): strain ATCC 29213; for MIC Staphylococcus aureus (GC 1131): strain GC 1131; for MIC Staphylococcus aureus (GC 3051): strain GC 3051; for MIC Staphylococcus aureus (GC 3053): strain GC 3053; for MIC Staphylococcus aureus (GC 4541): strain GC 4541; for MIC Staphylococcus aureus (GC 4542): strain GC 4542; for MIC Staphylococcus aureus (GC 4544): strain GC 4544; for MIC Staphylococcus aureus (GC 4545): strain GC 4545
Outline: (§1)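 MIC = lowest antibiotic concentration preventing visible growth; inoculum 5×10^5 CFU/mL; drug range 64-0.06 μg/mL; Muller-Hinton II […]; NCCLS M7-A2 guidance.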

[2] = test system: Streptococcus sp.; settings: broth dilution, 18 hours at 35° C.
Outline: as §1

[3] = test system: Enterococcus sp.; settings: broth dilution, 18 hours at 35° C.
Outline: as §1

[4] = test system: Escherichia coli; settings: 18 hours at 35° C.
[5] = inoculum 5×10^5 CFU/mL, strain ATCC 6301
[6] = inoculum 5×10^5 CFU/mL, strain GC 1894
[7] = inoculum 5×10^5 CFU/mL, strain GC 4563
[8] = inoculum 5×10^5 CFU/mL, strain GC 4564
[9] = inoculum 5×10^5 CFU/mL, strain GC 4565
[10] = inoculum 5×10^5 CFU/mL, strain ATCC 29212
[11] = inoculum 5×10^5 CFU/mL, strain GC 2242
[12] = inoculum 5×10^5 CFU/mL, strain GC 2243
[13] = inoculum 5×10^5 CFU/mL, strain GC 2691
[14] = inoculum 5×10^5 CFU/mL, strain GC 3059
[15] = inoculum 5×10^5 CFU/mL, strain GC 4552
[16] = inoculum 5×10^5 CFU/mL, strain GC 4553
[17] = inoculum 5×10^5 CFU/mL, strain GC 4554
[18] = inoculum 5×10^5 CFU/mL, strain GC 4556
[19] = inoculum 5×10^5 CFU/mL, strain GC 4557
[20] = inoculum 5×10^5 CFU/mL, strain GC 4558
[21] = inoculum 5×10^5 CFU/mL, strain GC 6189

MIC Coagulase Negative Staphylococcus (GC 4547) [1]: 8 µg/mL (≈ 5.05 µM)
MIC Coagulase Negative Staphylococcus (GC 4548) [1]: 8 µg/mL (≈ 5.05 µM)
MIC Coagulase Negative Staphylococcus (GC 4549) [1]: 16 µg/mL (≈ 10.1 µM)
MIC Coagulase Negative Staphylococcus (GC 4551) [1]: 8 µg/mL (≈ 5.05 µM)
MIC Coagulase Negative Staphylococcus (GC 6257) [1]: 2 µg/mL (≈ 1.26 µM)
MIC Staphylococcus aureus-SMITH (GC 4543) [1]: 8 µg/mL (≈ 5.05 µM)
MIC Staphylococcus aureus-SMITH (GC 4543) ([1]; strain GC 4543): 8 µg/mL (≈ 5.05 µM)
MIC Coagulase Negative Staphylococcus (GC 4547) ([1]; strain GC 4547): 8 µg/mL (≈ 5.05 µM)
MIC Coagulase Negative Staphylococcus (GC 4548) ([1]; strain GC 4548): 8 µg/mL (≈ 5.05 µM)
MIC Coagulase Negative Staphylococcus (GC 4549) ([1]; strain GC 4549): 16 µg/mL (≈ 10.1 µM)
MIC Coagulase Negative Staphylococcus (GC 4551) ([1]; strain GC 4551): 8 µg/mL (≈ 5.05 µM)
MIC Coagulase Negative Staphylococcus (GC 6257) ([1]; strain GC 6257): 2 µg/mL (≈ 1.26 µM)
MIC Staphylococcus aureus (ATCC 29213) [1]: 16 µg/mL (≈ 10.1 µM)
MIC Staphylococcus aureus (GC 1131) [1]: 16 µg/mL (≈ 10.1 µM)
MIC Staphylococcus aureus (GC 3051) [1]: 16 µg/mL (≈ 10.1 µM)
MIC Staphylococcus aureus (GC 3053) [1]: 16 µg/mL (≈ 10.1 µM)
MIC Staphylococcus aureus (GC 4541) [1]: 8 µg/mL (≈ 5.05 µM)
MIC Staphylococcus aureus (GC 4542) [1]: 16 µg/mL (≈ 10.1 µM)
MIC Staphylococcus aureus (GC 4544) [1]: 16 µg/mL (≈ 10.1 µM)
MIC Staphylococcus aureus (GC 4545) [1]: 16 µg/mL (≈ 10.1 µM)
MIC Streptococcus agalactiae (GC 4564) [2]: 4 µg/mL (≈ 2.52 µM)
MIC Streptococcus pneumoniae (ATCC 6301) [2]: 4 µg/mL (≈ 2.52 µM)
MIC Streptococcus pneumoniae (GC 1894) [2]: 0.5 µg/mL (≈ 0.315 µM)
MIC Streptococcus pneumoniae (GC 4565) [2]: 4 µg/mL (≈ 2.52 µM)
MIC Streptococcus pyogenes (GC 4563) [2]: 2 µg/mL (≈ 1.26 µM)
MIC Streptococcus pneumoniae (ATCC 6301) [2, 5]: 4 µg/mL (≈ 2.52 µM)
MIC Streptococcus pneumoniae (GC 1894) [2, 6]: 0.5 µg/mL (≈ 0.315 µM)
MIC Streptococcus pyogenes (GC 4563) [2, 7]: 2 µg/mL (≈ 1.26 µM)
MIC Streptococcus agalactiae (GC 4564) [2, 8]: 4 µg/mL (≈ 2.52 µM)
MIC Streptococcus pneumoniae (GC 4565) [2, 9]: 4 µg/mL (≈ 2.52 µM)
MIC Enterococcus avium (GC 4558) [3]: 8 µg/mL (≈ 5.05 µM)
MIC Enterococcus faecalis (ATCC 29212) [3]: 32 µg/mL (≈ 20.2 µM)
MIC Enterococcus faecalis (GC 2242) [3]: 16 µg/mL (≈ 10.1 µM)
MIC Enterococcus faecalis (GC 2691) [3]: 32 µg/mL (≈ 20.2 µM)
MIC Enterococcus faecalis (GC 3059) [3]: 32 µg/mL (≈ 20.2 µM)
MIC Enterococcus faecalis (GC 4552) [3]: 32 µg/mL (≈ 20.2 µM)
MIC Enterococcus faecalis (GC 4553) [3]: 16 µg/mL (≈ 10.1 µM)
MIC Enterococcus faecalis (GC 4554) [3]: 32 µg/mL (≈ 20.2 µM)
MIC Enterococcus faecalis (GC 6189) [3]: 32 µg/mL (≈ 20.2 µM)
MIC Enterococcus faecium (GC 2243) [3]: 16 µg/mL (≈ 10.1 µM)
MIC Enterococcus faecium (GC 4556) [3]: 32 µg/mL (≈ 20.2 µM)
MIC Enterococcus faecium (GC 4557) [3]: 2 µg/mL (≈ 1.26 µM)
MIC Enterococcus faecalis (ATCC 29212) [3, 10]: 32 µg/mL (≈ 20.2 µM)
MIC Enterococcus faecalis (GC 2242) [3, 11]: 16 µg/mL (≈ 10.1 µM)
MIC Enterococcus faecium (GC 2243) [3, 12]: 16 µg/mL (≈ 10.1 µM)
MIC Enterococcus faecalis (GC 2691) [3, 13]: 32 µg/mL (≈ 20.2 µM)
MIC Enterococcus faecalis (GC 3059) [3, 14]: 32 µg/mL (≈ 20.2 µM)
MIC Enterococcus faecalis (GC 4552) [3, 15]: 32 µg/mL (≈ 20.2 µM)
MIC Enterococcus faecalis (GC 4553) [3, 16]: 16 µg/mL (≈ 10.1 µM)
MIC Enterococcus faecalis (GC 4554) [3, 17]: 32 µg/mL (≈ 20.2 µM)
MIC Enterococcus faecium (GC 4556) [3, 18]: 32 µg/mL (≈ 20.2 µM)
MIC Enterococcus faecium (GC 4557) [3, 19]: 2 µg/mL (≈ 1.26 µM)
MIC Enterococcus avium (GC 4558) [3, 20]: 8 µg/mL (≈ 5.05 µM)
MIC Enterococcus faecalis (GC 6189) [3, 21]: 32 µg/mL (≈ 20.2 µM)
MIC Escherichia coli (ATCC 25922) [4]: >128 µg/mL
MIC Escherichia coli (GC 4559) [4]: 128 µg/mL (≈ 80.7 µM)
MIC Escherichia coli (GC 4560) [4]: 4 µg/mL (≈ 2.52 µM)
SMILES: CC(c1ccccc1)C1NC(=O)CNC(=O)C(CO)NC(=O)C(C(O)C2CN(Cc3ccc(C(F)(F)F)cc3)C(=N)N2C2OC(CO)C(O)C(O)C2O)NC(=O)C(C(O)C2CNC(=N)N2)NC(=O)C(Cc2ccc(OC3OC(CO)C(OC4OC5COC6(OC5C(O)C4O)C4CC5CC(C4)CC6C5)C(O)C3O)cc2)NC1=O (centres unmarked) [Example 226]
MIC Staphylococcus haemolyticus (GC 4546) [1]: 8 µg/mL (≈ 5.05 µM)
MIC Staphylococcus haemolyticus (GC 4546) ([1]; strain GC 4546): 8 µg/mL (≈ 5.05 µM)

MIC Coagulase Negative Staphylococcus (GC 4547) [1]: 32 µg/mL (≈ 19.3 µM)
MIC Coagulase Negative Staphylococcus (GC 4548) [1]: 4 µg/mL (≈ 2.41 µM)
MIC Coagulase Negative Staphylococcus (GC 4549) [1]: 32 µg/mL (≈ 19.3 µM)
MIC Coagulase Negative Staphylococcus (GC 4551) [1]: 8 µg/mL (≈ 4.81 µM)
MIC Staphylococcus aureus-SMITH (GC 4543) [1]: 128 µg/mL (≈ 77 µM)
MIC Staphylococcus aureus-SMITH (GC 4543) ([1]; strain GC 4543): 128 µg/mL (≈ 77 µM)
MIC Coagulase Negative Staphylococcus (GC 4547) ([1]; strain GC 4547): 32 µg/mL (≈ 19.3 µM)
MIC Coagulase Negative Staphylococcus (GC 4548) ([1]; strain GC 4548): 4 µg/mL (≈ 2.41 µM)
MIC Coagulase Negative Staphylococcus (GC 4549) ([1]; strain GC 4549): 32 µg/mL (≈ 19.3 µM)
MIC Coagulase Negative Staphylococcus (GC 4551) ([1]; strain GC 4551): 8 µg/mL (≈ 4.81 µM)
MIC Staphylococcus aureus (ATCC 29213) [1]: 128 µg/mL (≈ 77 µM)
MIC Staphylococcus aureus (GC 1131) [1]: 128 µg/mL (≈ 77 µM)
MIC Staphylococcus aureus (GC 3051) [1]: 128 µg/mL (≈ 77 µM)
MIC Staphylococcus aureus (GC 3053) [1]: >128 µg/mL
MIC Staphylococcus aureus (GC 4541) [1]: 128 µg/mL (≈ 77 µM)
MIC Staphylococcus aureus (GC 4542) [1]: 128 µg/mL (≈ 77 µM)
MIC Staphylococcus aureus (GC 4544) [1]: 128 µg/mL (≈ 77 µM)
MIC Staphylococcus aureus (GC 4545) [1]: 128 µg/mL (≈ 77 µM)
MIC Streptococcus agalactiae (GC 4564) [2]: 4 µg/mL (≈ 2.41 µM)
MIC Streptococcus pneumoniae (ATCC 6301) [2]: 32 µg/mL (≈ 19.3 µM)
MIC Streptococcus pneumoniae (GC 1894) [2]: 32 µg/mL (≈ 19.3 µM)
MIC Streptococcus pneumoniae (GC 4565) [2]: 64 µg/mL (≈ 38.5 µM)
MIC Streptococcus pyogenes (GC 4563) [2]: 32 µg/mL (≈ 19.3 µM)
MIC Streptococcus pneumoniae (ATCC 6301) [2, 5]: 32 µg/mL (≈ 19.3 µM)
MIC Streptococcus pneumoniae (GC 1894) [2, 6]: 32 µg/mL (≈ 19.3 µM)
MIC Streptococcus pyogenes (GC 4563) [2, 7]: 32 µg/mL (≈ 19.3 µM)
MIC Streptococcus agalactiae (GC 4564) [2, 8]: 64 µg/mL (≈ 38.5 µM)
MIC Streptococcus pneumoniae (GC 4565) [2, 9]: 64 µg/mL (≈ 38.5 µM)
MIC Enterococcus avium (GC 4558) [3]: 8 µg/mL (≈ 4.81 µM)
MIC Enterococcus faecalis (ATCC 29212) [3]: 64 µg/mL (≈ 38.5 µM)
MIC Enterococcus faecalis (GC 2242) [3]: 64 µg/mL (≈ 38.5 µM)
MIC Enterococcus faecalis (GC 2691) [3]: 64 µg/mL (≈ 38.5 µM)
MIC Enterococcus faecalis (GC 3059) [3]: 128 µg/mL (≈ 77 µM)
MIC Enterococcus faecalis (GC 4552) [3]: 64 µg/mL (≈ 38.5 µM)
MIC Enterococcus faecalis (GC 4553) [3]: 8 µg/mL (≈ 4.81 µM)
MIC Enterococcus faecalis (GC 4554) [3]: 128 µg/mL (≈ 77 µM)
MIC Enterococcus faecalis (GC 6189) [3]: 64 µg/mL (≈ 38.5 µM)
MIC Enterococcus faecium (GC 2243) [3]: 32 µg/mL (≈ 19.3 µM)
MIC Enterococcus faecium (GC 4556) [3]: 64 µg/mL (≈ 38.5 µM)
MIC Enterococcus faecium (GC 4557) [3]: 8 µg/mL (≈ 4.81 µM)
MIC Enterococcus faecalis (ATCC 29212) [3, 10]: 64 µg/mL (≈ 38.5 µM)
MIC Enterococcus faecalis (GC 2242) [3, 11]: 64 µg/mL (≈ 38.5 µM)
MIC Enterococcus faecium (GC 2243) [3, 12]: 32 µg/mL (≈ 19.3 µM)
MIC Enterococcus faecalis (GC 2691) [3, 13]: 64 µg/mL (≈ 38.5 µM)
MIC Enterococcus faecalis (GC 3059) [3, 14]: 128 µg/mL (≈ 77 µM)
MIC Enterococcus faecalis (GC 4552) [3, 15]: 64 µg/mL (≈ 38.5 µM)
MIC Enterococcus faecalis (GC 4553) [3, 16]: 8 µg/mL (≈ 4.81 µM)
MIC Enterococcus faecalis (GC 4554) [3, 17]: 128 µg/mL (≈ 77 µM)
MIC Enterococcus faecium (GC 4556) [3, 18]: 64 µg/mL (≈ 38.5 µM)
MIC Enterococcus faecium (GC 4557) [3, 19]: 8 µg/mL (≈ 4.81 µM)
MIC Enterococcus avium (GC 4558) [3, 20]: 8 µg/mL (≈ 4.81 µM)
MIC Enterococcus faecalis (GC 6189) [3, 21]: 64 µg/mL (≈ 38.5 µM)
MIC Escherichia coli (ATCC 25922) [4]: >128 µg/mL
MIC Escherichia coli (GC 4559) [4]: >128 µg/mL
MIC Escherichia coli (GC 4560) [4]: 8 µg/mL (≈ 4.81 µM)
SMILES: CC(c1ccccc1)C1NC(=O)CNC(=O)C(CO)NC(=O)C(C(O)C2CN(c3nc4ccccc4o3)C(=N)N2C2OC(CO)C(O)C(O)C2O)NC(=O)C(C(O)C2CNC(=Nc3nc4ccccc4o3)N2)NC(=O)C(Cc2ccc(OC3OC(CO)C(OC4OC5COC6(OC5C(O)C4O)C4CC5CC(C4)CC6C5)C(O)C3O)cc2)NC1=O (centres unmarked) [Example 227]
MIC Staphylococcus haemolyticus (GC 4546) [1]: 64 µg/mL (≈ 38.5 µM)
MIC Staphylococcus haemolyticus (GC 4546) ([1]; strain GC 4546): 64 µg/mL (≈ 38.5 µM)
